This experiment deals with nitrification of ammonium nitrogen. Kind of experiment: Suppression of nitrification of ammonium nitrogen in soil. The conditions noted are these: 27° C. How it is done: A sufficient volume of water was added to 20 g of the soil in a wide-mouth, screw-cap, 4-ounce, glass bottle, such that the moisture content of the mixture was made equal to the 1/3 bar tension value for that soil. The mixture was thoroughly mixed before sealing. […] Acetone slows the rate of soil nitrification and its concentration must be carefully controlled. Single samples of each test chemical were incubated for two weeks at 27° C.
The experiment comprised the following types of samples:
The soil samples were analyzed as follows: Sufficient ammonium sulfate extracting solution was added to the sample, such that the total volume of added water was 50 ml (included water added during sample preparation). The capped mixture was shaken 10 minutes to solubilize nitrate and the soil particulates were allowed to settle. The nitrate concentration in the water phase was determined with a nitrate-specific ion electrode such as Orion Model 93-07.
The non-nitrate nitrogen remaining (% NH4 -N remaining) in the soil after two weeks (performance value) was calculated as follows: [formula]

Each structure is given as a SMILES string.

Regarding `COC(=O)c1cccc(C)c1NS(=O)(=O)c1nc2nc(C)ccn2n1` [Compound 146], the “% NH4-N Remaining After 2 Weeks Incubation” value is 19% (0.06 ppm), 48% (0.25 ppm), 60% (1 ppm) and 79% (4 ppm).

With `Cc1cc(C)n2nc(S(=O)(=O)Nc3c(C)cccc3C(=O)OCCN(C)C)nc2n1` [Compound 73], the “% NH4-N Remaining After 2 Weeks Incubation” value (0.06 ppm) was determined as 26%, the “% NH4-N Remaining After 2 Weeks Incubation” value (0.25 ppm) stood at 47%, the “% NH4-N Remaining After 2 Weeks Incubation” value (1 ppm) worked out at 41% and the “% NH4-N Remaining After 2 Weeks Incubation” value (4 ppm) is 62%.

In the case of `O=[N+]([O-])c1ccc(-c2cnc3nc(S(=O)(=O)Nc4c(Cl)cccc4Cl)nn3c2)cc1` [Compound 226], the “% NH4-N Remaining After 2 Weeks Incubation” value reads like this: (0.06 ppm) 2%; (0.25 ppm) 17%; (1 ppm) 42%; (4 ppm) 69%.

Consider `Cc1cc(C)n2nc(S(=O)(=O)Nc3c(C)cccc3C(=O)Oc3ccccc3)nc2n1` [Compound 75], for which the “% NH4-N Remaining After 2 Weeks Incubation” value by setting is: (0.06 ppm) 25%; (0.25 ppm) 61%; (1 ppm) 67%; (4 ppm) 86%.

Turning to `Cc1cc(C)n2nc(S(=O)(=O)Nc3ccccc3O)nc2n1` [Compound 3], the “% NH4-N Remaining After 2 Weeks Incubation” value by setting is: (0.01 ppm) 0%; (0.1 ppm) 0%; (1 ppm) 0%; (10 ppm) 25%.

Regarding `Cc1cc(C)n2nc(S(=O)(=O)Nc3ccc(Cl)cc3)nc2n1` [Compound 18], the “% NH4-N Remaining After 2 Weeks Incubation” value runs as follows: (0.01 ppm) 0%; (0.1 ppm) 0%; (1 ppm) 5%; (10 ppm) 50%.

For the compound `COC(=O)c1ccc(C(=O)OC)c(NS(=O)(=O)c2nc3nc(C)cc(C)n3n2)c1` [Compound 102], the “% NH4-N Remaining After 2 Weeks Incubation” value turned out to be 0% (0.6 ppm); 0% (1.25 ppm); 0% (2.5 ppm); 24% (5 ppm); 44% (10 ppm).

As for `Cc1ccn2nc(S(=O)(=O)Nc3c(C)cccc3Br)nc2n1` [Compound 148], the “% NH4-N Remaining After 2 Weeks Incubation” value is, setting by setting: (0.6 ppm) 69%; (1.25 ppm) 75%; (2.5 ppm) 81%; (5 ppm) 89%; (10 ppm) 93%.

Consider `Cc1cc(C)n2nc(S(=O)(=O)Nc3cc(Cl)ccc3Cl)nc2n1` [Compound 21], for which the “% NH4-N Remaining After 2 Weeks Incubation” value (0.01 ppm) was 8%, the “% NH4-N Remaining After 2 Weeks Incubation” value (0.1 ppm) came to 42%, the “% NH4-N Remaining After 2 Weeks Incubation” value (1 ppm) is given as 68% and the “% NH4-N Remaining After 2 Weeks Incubation” value (10 ppm) is reported as 86%.

For the compound `Cc1cc(C)n2nc(S(=O)(=O)Nc3c(C)cccc3Br)nc2n1` [Compound 58], the “% NH4-N Remaining After 2 Weeks Incubation” value (0.06 ppm) is listed as 92%, the “% NH4-N Remaining After 2 Weeks Incubation” value (0.25 ppm) was 48%, the “% NH4-N Remaining After 2 Weeks Incubation” value (1 ppm) amounted to 58% and the “% NH4-N Remaining After 2 Weeks Incubation” value (4 ppm) stood at 80%.

In the case of `Cc1cc(C)n2nc(S(=O)(=O)Nc3ccc(Cl)cc3Br)nc2n1` [Compound 40], the “% NH4-N Remaining After 2 Weeks Incubation” value (0.6 ppm) is 0%; the “% NH4-N Remaining After 2 Weeks Incubation” value (1.25 ppm) is given as 0%; the “% NH4-N Remaining After 2 Weeks Incubation” value (2.5 ppm) is 40%; the “% NH4-N Remaining After 2 Weeks Incubation” value (5 ppm) turned out to be 17%; the “% NH4-N Remaining After 2 Weeks Incubation” value (10 ppm) was 66%.

`Cc1cc(C)n2nc(S(=O)(=O)Nc3c(C)cccc3C(=O)OC(C)C)nc2n1` [Compound 64]: the “% NH4-N Remaining After 2 Weeks Incubation” value came to 19% (0.06 ppm), 43% (0.25 ppm), 62% (1 ppm) and 81% (4 ppm).
